Where two headings read alike, the source gives them in different places.
Legend:
[1] = test system: HCV replicon cells Huh 9B; type: cell-based
[2] = test system: HCV replicon cells Huh 9B; assay: HCV replicon assay (luciferase readout); type: cell-based
Method in brief: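 Compounds, made up at twice final strength (final DMSO 1%), were added to subgenomic replicon cells one day after plating. Incubation then ran 72 h at 37 °C, 5% CO2, without G418. Replication was quantified as firefly luciferase luminescence in lysed cells, with cytotoxicity assessed on a duplicate clear plate.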

[3] = concentration reducing total cell area by 50% relative to DMSO controls, methylene blue, absorbance 620 nm, 72 h incubation
[4] = Hepatitis C virus, 72 h, concentration reducing replicon level (luciferase activity) by 50% vs untreated cell control, 72 h incubation

Row | Structure (SMILES) | TD50 [1, 3] | IC50 [2, 4] [µM] | TD50 [1] | IC50 [2] [µM]
1 | Cc1ccc(C(=O)Nc2ccc(N3CCOCC3)cc2)cc1-c1ccc(C(=O)NCc2cccc(CNC(=O)OC(C)(C)C)c2)cc1 [Example 47, [3-({[2′-Methyl-5′-(4-morpholin-4-yl-phenylcarbamoyl)-biphenyl-4-carbonyl]-amino}-methyl)-benzyl]-carbamic acid tert-butyl ester] | ** (** > 50 μM) | > 5 | – | –
2 | Cc1ccc(NS(=O)(=O)c2ccc(N3CCOCC3)nc2)cc1-c1ccc(C(=O)Nc2ccc(CN3CCS(=O)(=O)CC3)cc2)cc1 [Example 203, 2′-Methyl-5′-(6-morpholin-4-yl-pyridine-3-sulfonylamino)-biphenyl-4-carboxylic acid [4-(1,1-dioxo-1lambda*6*-thiomorpholin-4-ylmethyl)-phenyl]-amide] | * (* < 50 μM) | 1 to 5 | – | –
3 | Cc1ccc(C(=O)Nc2ccc(N3CCOCC3)cc2)cc1-c1ccc(C(=O)N2CCN(c3cccc(Cl)c3Cl)CC2)cc1 [Example 37, 4′-[4-(2,3-Dichloro-phenyl)-piperazine-1-carbonyl]-6-methyl-biphenyl-3-carboxylic acid (4-morpholin-4-yl-phenyl)-amide] | ** (** > 50 μM) | > 5 | – | –
4 | Cc1ccc(C(=O)Nc2ccc(N3CCOCC3)cc2)cc1-c1ccc(C(=O)NCc2cccc(F)c2)cc1 [Example 5, 6-Methyl-biphenyl-3,4′-dicarboxylic acid 4′-(3-fluoro-benzylamide) 3-[(4-morpholin-4-yl-phenyl)-amide]] | – | – | ** (key: * < 50 μM; ** > 50 μM) | 1 to 5
5 | COc1ccc(NC(=O)C2CCCCC2)cc1-c1ccc(C(=O)Nc2ccc(CN3CCS(=O)(=O)CC3)cc2)cc1 [Example 187, 5′-(Cyclohexanecarbonyl-amino)-2′-methoxy-biphenyl-4-carboxylic acid [4-(1,1-dioxo-1lambda*6*-thiomorpholin-4-ylmethyl)-phenyl]-amide] | * (* < 50 μM) | < 1 | – | –
6 | Cc1ccc(C(=O)Nc2ccc(N3CCOCC3)cc2)cc1-c1ccc(C(=O)NCc2cccc(C(F)(F)F)c2)cc1 [Example 10, 6-Methyl-biphenyl-3,4′-dicarboxylic acid 3-[(4-morpholin-4-yl-phenyl)-amide] 4′-(3-trifluoromethyl-benzylamide)] | – | – | * (key: * < 50 μM; ** > 50 μM) | 1 to 5
7 | Cc1ccc(C(=O)Nc2ccc(N3CCOCC3)cc2)cc1-c1ccc(NC(=O)c2ccccc2O)cc1 [Example 109, 4′-(2-Hydroxy-benzoylamino)-6-methyl-biphenyl-3-carboxylic acid (4-morpholin-4-yl-phenyl)-amide] | * (* < 50 μM) | 1 to 5 | – | –
8 | Cc1ccc(C(=O)Nc2ccc(N3CCOCC3)cc2)cc1-c1ccc(C(=O)Nc2ccc(CN3CCCCC3)cc2)cc1 [Example 73, 6-Methyl-biphenyl-3,4′-dicarboxylic acid 3-[(4-morpholin-4-yl-phenyl)-amide] 4′-[(4-piperidin-1-ylmethyl-phenyl)-amide]] | – | – | * (key: * < 50 μM; ** > 50 μM) | < 1
9 | Cc1ccc(NS(=O)(=O)c2ccc(Cl)cc2)cc1-c1ccc(C(=O)Nc2ccc(CN3CCS(=O)(=O)CC3)cc2)cc1 [Example 202, 5′-(4-Chloro-benzenesulfonylamino)-2′-methyl-biphenyl-4-carboxylic acid [4-(1,1-dioxo-1lambda*6*-thiomorpholin-4-ylmethyl)-phenyl]-amide] | ** (** > 50 μM) | 1 to 5 | – | –
10 | Cc1ccc(C(=O)Nc2ccc(N3CCOCC3)cc2)cc1-c1ccc(C(=O)Nc2ccc(Br)cc2)cc1 [Example 7, 6-Methyl-biphenyl-3,4′-dicarboxylic acid 4′-[(4-bromo-phenyl)-amide] 3-[(4-morpholin-4-yl-phenyl)-amide]] | – | – | * (key: * < 50 μM; ** > 50 μM) | 1 to 5
11 | CC(=O)C(=O)Nc1ccc(C)c(-c2ccc(C(=O)Nc3ccc(CN4CCS(=O)(=O)CC4)cc3)cc2)c1 [Example 190, 2′-Methyl-5′-(2-oxo-propionylamino)-biphenyl-4-carboxylic acid [4-(1,1-dioxo-1lambda*6*-thiomorpholin-4-ylmethyl)-phenyl]-amide] | * (* < 50 μM) | < 1 | – | –
12 | Cc1ccc(C(=O)Nc2ccc(N3CCOCC3)cc2)cc1-c1ccc(C(=O)NCCc2cccs2)cc1 [Example 11, 6-Methyl-biphenyl-3,4′-dicarboxylic acid 3-[(4-morpholin-4-yl-phenyl)-amide] 4′-[(2-thiophen-2-yl-ethyl)-amide]] | – | – | ** (key: * < 50 μM; ** > 50 μM) | 1 to 5
13 | Cc1ccc(NC(=O)C2CCCCC2)cc1-c1ccc(C(=O)Nc2ccc(-n3cncn3)cc2)cc1 [Example 219, 5′-(Cyclohexanecarbonyl-amino)-2′-methyl-biphenyl-4-carboxylic acid (4-[1,2,4]triazol-1-yl-phenyl)-amide] | * (* < 50 μM) | 1 to 5 | – | –
14 | Cc1cc(C(=O)Nc2ccc(N3CCOCC3)cc2)ccc1-c1cccc(C(=O)Nc2ccc(-c3ccno3)cc2)c1 [Example 65, 2′-Methyl-biphenyl-3,4′-dicarboxylic acid 3-[(4-isoxazol-5-yl-phenyl)-amide] 4′-[(4-morpholin-4-yl-phenyl)-amide]] | – | – | * (key: * < 50 μM; ** > 50 μM) | < 1
15 | Cc1ccc(C(=O)NCC2CCCCC2)cc1-c1ccc(C(=O)Nc2ccc(CN3CCS(=O)(=O)CC3)cc2)cc1 [Example 146, 6-Methyl-biphenyl-3,4′-dicarboxylic acid 3-cyclohexylmethyl-amide 4′-{[4-(1,1-dioxo-1lambda*6*-thiomorpholin-4-ylmethyl)-phenyl]-amide}] | – | – | * (key: * < 50 μM; ** > 50 μM) | < 1
16 | CCC1(c2ccc(NC(=O)c3ccc(-c4cc(NC(=O)C5CCCCC5)ccc4C)cc3)cc2)CCC(=O)NC1=O (centres unmarked) [Example 221, 5′-(Cyclohexanecarbonyl-amino)-2′-methyl-biphenyl-4-carboxylic acid [4-(3-ethyl-2,6-dioxo-piperidin-3-yl)-phenyl]-amide] | * (* < 50 μM) | < 1 | – | –
17 | O=C(Nc1ccc(CN2CCS(=O)(=O)CC2)cc1)c1ccc(-c2cccc(NC(=O)C3CCC3)c2)cc1 [Example 169, 3′-(Cyclobutanecarbonyl-amino)-biphenyl-4-carboxylic acid [4-(1,1-dioxo-1lambda*6*-thiomorpholin-4-ylmethyl)-phenyl]-amide] | * (* < 50 μM) | < 1 | – | –
18 | Cc1ccc(NC(=O)C2(C)CC2)cc1-c1ccc(C(=O)Nc2ccc(CN3CCS(=O)(=O)CC3)cc2)cc1 [Example 175, 2′-Methyl-5′-[(1-methyl-cyclopropanecarbonyl)-amino]-biphenyl-4-carboxylic acid [4-(1,1-dioxo-1lambda*6*-thiomorpholin-4-ylmethyl)-phenyl]-amide] | * (* < 50 μM) | < 1 | – | –
19 | Cc1ccc(C(=O)NCc2cccc(F)c2)cc1-c1ccc(C(=O)Nc2ccc(CN3CCS(=O)(=O)CC3)cc2)cc1 [Example 123, 6-Methyl-biphenyl-3,4′-dicarboxylic acid 4′-{[4-(1,1-dioxo-1lambda*6*-thiomorpholin-4-ylmethyl)-phenyl]-amide} 3-(3-fluoro-benzylamide)] | – | – | * (key: * < 50 μM; ** > 50 μM) | < 1

Source: patent US8008303B2, “Biphenyl derivatives and their use in treating hepatitis C” (AstraZeneca AB, priority 2005, dated 2011)
